One compound from patent US10453555B2, “Parameterizing cell-to-cell regulatory heterogeneities via stochastic transcriptional profiles” (University of Virginia Patent Foundation, priority 2015, dated 2019) can be followed below.

For assay [1], the system named is p110δ. The assay can be described thus: IC87114 inhibitor validation: pAkt immunoblotting after lysophosphatidic acid stimulation. As to conditions: MCF10A-5E cells, 20 μM IC87114 pre-treatment for one hour, 10 μM lysophosphatidic acid for five minutes. The class given is cell-based, human. How it is done: For p110δ inhibitor experiments, 20 μM IC87114 (Calbiochem) was added to the assay medium and replaced every four days. IC87114 inhibitor validation was performed as follows. MCF10A-5E cells were plated in 6-well dishes and cultured in serum-free medium overnight. Wells were pre-treated with or without 20 μM IC87114 (Calbiochem) for one hour and then stimulated with 10 μM lysophosphatidic acid (Sigma-Aldrich) for five minutes. Cells were lysed as previously described (Wang et al. (2011) Proc Natl Acad U S A 108(40):E803-812), and lysates were probed for pAkt levels by immunoblotting.
Immunoblotting was performed as follows. 30-50 μg of clarified cell extract was separated on an 8% or 10% SDS-PAGE gel and transferred to PVDF (Millipore). Membranes were blocked in 0.5×Odyssey blocking buffer (Licor) for one hour and incubated overnight at 4° C. in 0.5×Odyssey blocking buffer with 0.1% Tween containing one of the following primary antibodies: anti-p110δ (1:500; Santa Cruz Biotechnology) or anti-pAkt Ser473 (1:1000; Cell Signaling). Additionally, chicken anti-tubulin (1:20000; Abeam) was added to each primary solution as a loading control. […]
In general terms: In western blotting, separated proteins are transferred to a membrane and probed.

The test system of assay [2] is MCF10A-5E cells. Kind of assay: Proliferation of acini in 3D culture (phospho-Rb whole-mount immunofluorescence). It counts as cell-based, human. The conditions noted are these: shGFP control cells + 20 μM IC87114, replaced every four days. How it is done: We next asked whether PIK3CD was specifically important for normal acinar morphogenesis. To eliminate the very-rare PIK3CD^hi subpopulation, p110δ was perturbed by two independent methods: RNA interference and the p110δ-specific small-molecule inhibitor, IC87114 (Knight et al. (2006) Cell 125(4):733-747) (FIG. 18A and FIG. 21). […] Primers were annealed at 95° C. in annealing buffer (10 mM Tris-HCl, 100 mM NaCl, 1 mM EDTA) for 5 min on a thermocycler and cooled slowly to room temperature by unplugging the instrument. Annealed primers were phosphorylated in vitro with T4 polynucleotide kinase (New England Biolabs) and then cloned into pLKO.1 puro (Moffat et al. (2006) Cell 124(6):1283-1298) that had been digested with EcoRI and AgeI. Lentiviruses were packaged and transduced into MCF10A-5E cells and selecting with 2 μg/ml puromycin as previously described (Wang et al. (2011) Proc Natl Acad Sci U S A 108(40):E803-812) to produce shGFP and shPIK3CD cell lines. MCF10A (shGFP, and shPIK3CD) cell lines were cultured in 3D as previously described (Debnath et al. (2003) Methods 30(3):256-268). […]
Whole-mount immunofluorescence of shGFP and shPIK3CD cultures was performed as previously described (Wang et al. (2011) Proc Natl Acad U S A 108(40):E803-812). […] Samples were scored for pRb-positive acini as before (Wang et al. (2011) Proc Natl Acad Sci U S A 108(40):E803-812).

For the compound `Cc1ccccc1-n1c(Cn2cnc3c(N)ncnc32)nc2cccc(C)c2c1=O` [IC87114], the “Akt phosphorylation (pAkt Ser473 levels) stimulated by p110δ” value in assay [1] is “inhibits Akt phosphorylation”. In addition, in assay [2], the “proliferating (pRb-positive) acini” value is reported as “sustained proliferation”.
